Results: patent US11643421B2, “Process for the preparation of tricyclic PI3K inhibitor compounds and methods for using the same for the treatment of cancer” (priority 2015, dated 2023)

Assay: MALDI imaging of brain distribution, U87 orthotopic model
Type: in vivo, female nude mice
Settings: re-analysis of previously obtained images (Salphati et al. 2014)
Description: Mice were euthanized at 1 and 6 hours post-dose via exsanguination by perfusion under anesthesia. Brains were excised, flash frozen in liquid N2 and stored in a −80° C. freezer until analyzed. Fresh frozen tissue sections were obtained on a cryomicrotome (Leica CM3050S, Buffalo Grove, Ill.) at 12 μm thickness and thaw-mounted onto indium tin oxide coated glass slides (Bruker Daltonics, Billerica, Mass.). Tissue sections were an analyzed by imaging MALDI MS, providing signal intensities (and not absolute quantitation), followed by cresyl violet staining for histological interrogation.
For MALDI MAS analysis, a 40 mg/mL solution of 2,5-dihydroxybenzoic acid (Sigma-Aldrich, St. Louis, Mo.) was prepared in methanol:water (70:30 v/v). […] Matrix solution was homogenously spray-coated onto the tissue using a HTX TM-Sprayer (HTX technologies. Chapel Hill, N.C.). Matrix-coated tissue sections were transferred to the MALDI mass spectrometer (SolariX 7T FT-ICR, Bruker Daltonics, Bremen, Germany) for imaging analysis. […] Laser intensity and number of shots were optimized for sensitivity of the parent drug (1200 shots) with ion detection collected over the mass range of m/z 150-3000.
Following completion of the imaging experiments, matrix coaling was removed by rinsing the glass slide in 100% methanol for 30 seconds or until the entire matrix was visibly removed. […] Microscope images were obtained on an Olympus BX51 (Tokyo, Japan) at 10× magnification and stitched using MicroSuite Analytical v3.0 software (Olympus, Tokyo, Japan). Subsequently, stained images were co-registered to the optical images in FlexImaging for visualization and annotation of tumor and non-tumor regions for the drug images.
To assess drug distribution, imaging MALDI MS data from U87 and GS2 tumor models were co-registered to the cresyl violet stained microscope images in FlexImaging Regions of interest (ROIs) that were selected based on the anatomical features defined in the histological image including tumor and non-tumor regions. Drug intensity for each pixel within the defined ROI was extracted and exported. […] Histogram plots were created in GraphPad Prism 5 to visualize the distribution of pixel intensity frequencies.

distribution of signal intensities in the U87 tumor (MALDI): concentrated in the low intensity bins
SMILES: CS(=O)(=O)N1CCN(Cc2cc3nc(-c4cccc5[nH]ncc45)nc(N4CCOCC4)c3s2)CC1 [pictilisib, reference compound]
